Measurements published in ChEMBL document CHEMBL4393697, “Lipophilic efficient phenylthiazoles with potent undecaprenyl pyrophosphatase inhibitory activity” (Eur J Med Chem, 2019).
Values after ≈ are worked out from the molar mass of the structure shown. Active and inactive are the calls of the source. No cut-off for these calls is given here.

What was measured:
Format in all cases: functional
[1] = test system: Staphylococcus aureus; assay: Antibacterial activity against vancomycin resistant Staphylococcus aureus VRS12 assessed as reduction in bacterial cell growth incubated for 18 to 20 hrs by broth microdilution method
[2] = test system: Staphylococcus aureus; assay: Antibacterial activity against intracellular methicillin resistant Staphylococcus aureus USA400 infected in mouse J774 cells assessed as log10 reduction of viable bacterial cells incubated for 24 hrs followed by re-plating on tryptic soy agar plates at 37 degC for 18 to 22 hrs by broth microdilution assay
[3] = test system: Staphylococcus aureus; assay: Bactericidal activity against Staphylococcus aureus NRS107 assessed as reduction in bacterial cell growth incubated for 18 to 20 hrs followed by re-plating on tryptic soy agar plates at 37 degC for 18 hrs by broth microdilution assay
[4] = test system: Streptococcus pneumoniae; assay: Antibacterial activity against Methicillin resistant Streptococcus pneumoniae ATCC 700677 assessed as reduction in bacterial cell growth incubated for 18 to 20 hrs by broth microdilution method
[5] = test system: Staphylococcus aureus; assay: Bactericidal activity against vancomycin resistant Staphylococcus aureus VRS11a assessed as reduction in bacterial cell growth incubated for 18 to 20 hrs followed by re-plating on tryptic soy agar plates at 37 degC for 18 hrs by broth microdilution assay
[6] = test system: Enterococcus faecalis; assay: Antibacterial activity against vancomycin resistant Enterococcus faecalis ATCC 51299 assessed as reduction in bacterial cell growth incubated for 18 to 20 hrs by broth microdilution method
[7] = test system: Enterococcus faecium; assay: Antibacterial activity against vancomycin resistant Enterococcus faecium ATCC 700221 assessed as reduction in bacterial cell growth incubated for 18 to 20 hrs by broth microdilution method
[8] = test system: Staphylococcus aureus; assay: Bactericidal activity against methicillin resistant Staphylococcus aureus NRS119 assessed as reduction in bacterial cell growth incubated for 18 to 20 hrs followed by re-plating on tryptic soy agar plates at 37 degC for 18 hrs by broth microdilution assay
[9] = test system: Streptococcus pneumoniae; assay: Antibacterial activity against Cephalosporin resistant Streptococcus pneumoniae ATCC 51916 assessed as reduction in bacterial cell growth incubated for 18 to 20 hrs by broth microdilution method
[10] = test system: Staphylococcus aureus; assay: Bactericidal activity against vancomycin resistant Staphylococcus aureus VRS12 assessed as reduction in bacterial cell growth incubated for 18 to 20 hrs followed by re-plating on tryptic soy agar plates at 37 degC for 18 hrs by broth microdilution assay
[11] = test system: Streptococcus pneumoniae; assay: Bactericidal activity against Cephalosporin resistant Streptococcus pneumoniae ATCC 51916 assessed as reduction in bacterial cell growth incubated for 18 to 20 hrs followed by re-plating on tryptic soy agar plates at 37 degC for 18 hrs by broth microdilution assay
[12] = test system: Listeria monocytogenes; assay: Antibacterial activity against Listeria monocytogenes ATCC 19111 assessed as reduction in bacterial cell growth incubated for 18 to 20 hrs by broth microdilution method
[13] = test system: Staphylococcus aureus; assay: Antibacterial activity against methicillin-resistant Staphylococcus aureus USA400 assessed as reduction in CFU at 4 x MIC preincubated for 12 hrs in Tryptic soy broth followed by incubation for 18 to 20 hrs on TSA plate by time-kill assay
[14] = test system: Enterococcus faecium; assay: Bactericidal activity against vancomycin resistant Enterococcus faecium ATCC 700221 assessed as reduction in bacterial cell growth incubated for 18 to 20 hrs followed by re-plating on tryptic soy agar plates at 37 degC for 18 hrs by broth microdilution assay
[15] = test system: Staphylococcus aureus; assay: Bactericidal activity against vancomycin resistant Staphylococcus aureus VRS10 assessed as reduction in bacterial cell growth incubated for 18 to 20 hrs followed by re-plating on tryptic soy agar plates at 37 degC for 18 hrs by broth microdilution assay
[16] = test system: Staphylococcus aureus; assay: Bactericidal activity against Staphylococcus aureus ATCC 6538 assessed as reduction in bacterial cell growth incubated for 18 to 20 hrs followed by re-plating on tryptic soy agar plates at 37 degC for 18 hrs by broth microdilution assay
[17] = test system: Enterococcus faecalis; assay: Bactericidal activity against vancomycin resistant Enterococcus faecalis ATCC 51299 assessed as reduction in bacterial cell growth incubated for 18 to 20 hrs followed by re-plating on tryptic soy agar plates at 37 degC for 18 hrs by broth microdilution assay
[18] = test system: Staphylococcus aureus; assay: Antibacterial activity against vancomycin resistant Staphylococcus aureus VRS10 assessed as reduction in bacterial cell growth incubated for 18 to 20 hrs by broth microdilution method
[19] = test system: Staphylococcus aureus; assay: Bactericidal activity against methicillin-resistant Staphylococcus aureus USA300 assessed as reduction in bacterial cell growth incubated for 18 to 20 hrs followed by re-plating on tryptic soy agar plates at 37 degC for 18 hrs by broth microdilution assay
[20] = test system: Staphylococcus aureus; assay: Antibacterial activity against vancomycin resistant Staphylococcus aureus VRS11a assessed as reduction in bacterial cell growth incubated for 18 to 20 hrs by broth microdilution method
[21] = test system: Staphylococcus aureus; assay: Resistance index, ratio of MIC for antibacterial activity against methicillin-resistant Staphylococcus aureus USA400 treated repeatedly over 9 passages to MIC for antibacterial activity against methicillin-resistant Staphylococcus aureus USA400 treated for 18 to 20 hrs by broth microdilution assay
[22] = test system: Staphylococcus aureus; assay: Resistance index, ratio of MIC for antibacterial activity against methicillin-resistant Staphylococcus aureus USA400 treated over 1 passage to MIC for antibacterial activity against methicillin-resistant Staphylococcus aureus USA400 treated for 18 to 20 hrs by broth microdilution assay

SMILES: CN[C@H](CC(C)C)C(=O)N[C@H]1C(=O)N[C@@H](CC(N)=O)C(=O)N[C@H]2C(=O)N[C@H]3C(=O)N[C@H](C(=O)N[C@H](C(=O)O)c4cc(O)cc(O)c4-c4cc3ccc4O)[C@H](O)c3ccc(c(Cl)c3)Oc3cc2cc(c3O[C@@H]2O[C@H](CO)[C@@H](O)[C@H](O)[C@H]2O[C@H]2C[C@](C)(N)[C@H](O)[C@H](C)O2)Oc2ccc(cc2Cl)[C@H]1O [VANCOMYCIN]
- MIC [1]: 64 µg/mL (≈ 44.2 µM)
- inhibition [2]: inactive
- MBC [3]: 2 µg/mL (≈ 1.38 µM)
- MIC [4]: 2 µg/mL (≈ 1.38 µM)
- MBC [5]: > 64 µg/mL
- MIC [6]: 32 µg/mL (≈ 22.1 µM)
- MIC [7]: > 64 µg/mL
- MBC [8]: 1 µg/mL (≈ 0.69 µM)
- MIC [9]: 1 µg/mL (≈ 0.69 µM)
- MBC [10]: 64 µg/mL (≈ 44.2 µM)
- MBC [11]: 1 µg/mL (≈ 0.69 µM)
- MIC [12]: 1 µg/mL (≈ 0.69 µM)
- inhibition [13]: Active
- MBC [14]: > 64 µg/mL
- MBC [15]: > 64 µg/mL
- MBC [16]: 1 µg/mL (≈ 0.69 µM)
- MBC [17]: > 64 µg/mL
- MIC [18]: > 64 µg/mL
- MBC [19]: 4 µg/mL (≈ 2.76 µM)
- MIC [20]: > 64 µg/mL

SMILES: CO[C@H]1/C=C/O[C@@]2(C)Oc3c(C)c(O)c4c(O)c(c(/C=N/N5CCN(C)CC5)c(O)c4c3C2=O)NC(=O)/C(C)=C\C=C\[C@H](C)[C@H](O)[C@@H](C)[C@@H](O)[C@@H](C)[C@H](OC(C)=O)[C@@H]1C [RIFAMPIN]
- Ratio [21]: >500000
- Ratio [22]: 29
